# Data as given in article PMC7412550 (Viruses, 2020).
# What was measured:
# R557A RT RNase H [1] = target: T1, R557A RT RNase H (Human immunodeficiency virus type 1 group M subtype B, UniProt P04585, R1144A); test: HIV-1 DNA polymerase-independent RNase H activity, R557A RT; details: RNase H function; p-value 0.9682
# Q475A RT RNase H = Q475A RT RNase H (Human immunodeficiency virus type 1 group M subtype B, UniProt P04585, Q1062A); test: HIV-1 DNA polymerase-independent RNase H activity, Q475A RT; details: RNase H function; p-value = 0.0008
# R557A RT RNase H [2] = target: T1, R557A RT RNase H; design: method as in ref 26,27 = [26]; details: RNase H function; cited from earlier work
# R448A RT RNase H [3] = target: T2, R448A RT RNase H (Human immunodeficiency virus type 1 group M subtype B, UniProt P04585, R1035A); test: HIV-1 DNA polymerase-independent RNase H activity, R448A RT; details: RNase H function; p-value 0.5545
# R448A RT RNase H [4] = target: T2, R448A RT RNase H; design: method as in ref 26,27 = [26]; details: RNase H function; cited from earlier work
# MT4 cells = details: read-out: MT4 CC50; non-infected MT4 cells, MTT
# HIV-1 NL4.3 wt = details: for SI (selectivity index): ratio between the CC50 and the EC50; for EC50: read-out: HIV-1 wt MT EC50, HIV-1 NL4.3 wt, MT4 cells, MTT, 5 days post infection, mean and SD of three experiments
# in vitro = details: human
# [5] = target: HIV-1 RT-associated RDDP activity (wt RT) (Human immunodeficiency virus type 1 group M subtype B, UniProt P04585); test: HIV-1 RNA-dependent DNA polymerase (RDDP) activity; assay type: biochemical
# [6] = target: HIV-1 RT-associated RNase H (wt RT) (Human immunodeficiency virus type 1 group M subtype B, UniProt P04585); test: HIV-1 DNA polymerase-independent RNase H activity, wt RT
# VSV/HIV-1GFP = assay type: cell-based
# HIV-1 RT RNase H = details: Table S2; biologic data previously reported; cited from earlier work
# HIV-1 IN = tested on: HIV-1 IN; design: method as in ref 30 = [30]; details: enzymatic assay; cited from earlier work
smiles,measurement,setting,value
CCOC(=O)C(=O)CC(=O)/C=C/c1cccn1Cc1ccccc1Cl [RDS1759],potency of inhibition on R557A RT compared to wt RT,R557A RT RNase H [1],not significantly affected
same,potency of inhibition on Q475A RT compared to wt RT,Q475A RT RNase H,significantly lost its potency
same,activity against R557A HIV-1 RT,R557A RT RNase H [2],fully active
same,potency of inhibition on R448A RT compared to wt RT,R448A RT RNase H [3],not significantly affected
same,activity against R448A HIV-1 RT,R448A RT RNase H [4],fully active
same,CC50,MT4 cells,39 ± 4.4 µM
same,SI (selectivity index),HIV-1 NL4.3 wt,4.7
same,EC50,HIV-1 NL4.3 wt,8.2 ± 0.9 µM
CC(C)c1ccc(O)c(=O)c(O)c1 [beta-thujaplicinol],activity against R557A HIV-1 RT,R557A RT RNase H [2],fully active
same,activity against R448A HIV-1 RT,R448A RT RNase H [4],fully active
"Cc1cn([C@H]2C[C@H](N=[N+]=[N-])[C@@H](CO)O2)c(=O)[nH]c1=O [AZT, azidothymidine]",CC50,in vitro,> 3.7 µM
same,SI (selectivity index),HIV-1 NL4.3 wt,>500
"O=C(N/N=C/c1ccccc1O)c1cc(O)c(O)c(O)c1 [Compound 13, N’-(2-hydroxy-benzylidene)-3,4,5-trihydroxybenzoylhydrazone]",inhibitory effect on RDDP activity at 25 μM,[5]; 25 μM,no inhibitory effect
same,fold less potent against RT polymerase activity than RNase H function,[5]; RDDP vs RNase H,> 20 fold
same,IC50,"[5]; wt RT, inhibitor and substrate added before the enzyme (competition)",81 µM
same,IC50,"[6]; RNase H IC50 against wt enzyme (site-directed mutagenesis study, Figure 4), determined in parallel with mutants",6.9 µM
same,IC50,"[6]; RT-associated RNase H activity IC50 (comparative inhibition, Figure 2B), inhibitor and substrate added before the enzyme (competition)",3.6 µM
same,time after infection at which activity is lost (time-of-addition),VSV/HIV-1GFP,6 h
same,IC50,HIV-1 RT RNase H,2.32 ± 0.75 µM
same,activity against HIV-1 IN,HIV-1 IN,inactivity
same,CC50,in vitro,61.5 ± 2.2 µM
same,SI (selectivity index),HIV-1 NL4.3 wt,6.1
same,EC50,HIV-1 NL4.3 wt,10.1 ± 4.7 µM
"O=C1Nc2ccc(Cl)cc2[C@@](C#CC2CC2)(C(F)(F)F)O1 [EFV, efavirenz]",CC50,in vitro,> 0.31 µM
same,SI (selectivity index),HIV-1 NL4.3 wt,>6.25
"Cc1ccnc2c1NC(=O)c1cccnc1N2C1CC1 [NVP, nevirapine]",CC50,in vitro,> 3.7 µM
same,SI (selectivity index),HIV-1 NL4.3 wt,>5.5
"Cc1nnc(C(=O)NC(C)(C)c2nc(C(=O)NCc3ccc(F)cc3)c(O)c(=O)n2C)o1 [RAL, raltegravir]",time-of-addition behaviour,VSV/HIV-1GFP,retained its potency over time
same,CC50,in vitro,> 2.25 µM
O=C(N/N=C/c1cc(O)c(O)cc1O)c1cc(O)c(O)c(O)c1 [Compound 21],time-of-addition behaviour,VSV/HIV-1GFP,retained its potency over time
same,IC50,HIV-1 RT RNase H,0.62 ± 0.1 µM
same,activity against HIV-1 IN,HIV-1 IN,inhibited
same,CC50,in vitro,31.8 ± 0.4 µM
same,SI (selectivity index),HIV-1 NL4.3 wt,6.4
